Measured values published in article PMC12677843, “Multidisciplinary Preclinical Investigations on Ferrocenyl, Ruthenocenyl, and Benzyl Derivatives of Niridazole as New Drug Candidates against Schistosomiasis” (Chemmedchem, 2025).
“Also recorded” adds a separate entry of the source.

Tests used:
[1] = tested on: adult S. mansoni; assay: In vitro drug sensitivity assay on adult S. mansoni (microscopic viability scoring); format: cell-based, Schistosoma mansoni; conditions: for drug effect at 50 µM on adult S. mansoni: 72 h incubation, normalized to DMSO control, active if ≥60%; for EC50: 72 h drug exposure, 37 °C, 5% CO2, read-out: EC50 on adult S. mansoni, 72 h
Experimental: Figure 3 In vitro activity at 50 µM of the 12 compounds on adult S. mansoni. Adult schistosomes were incubated in culture media for 72 h at 37 °C and 5% CO2 with either compound (50 µM) or a DMSO (0.5%) control. The viability of the worms was microscopically evaluated and scored (0—3, in 0.5 steps) every 24 h. Results are from two independent experiments, each performed in duplicate. Drug activities were normalized to the DMSO controls. Data represent mean ± SD in percentage of DMSO control. […]
In vitro evaluation on adult S. mansoni
After a week for acclimatization to the new environment with controlled conditions (temperature: 22 °C ± 2 °C, humidity: 50 % ± 10 %, 12:12 h light/dark photocycle), four-week-old female NMRI mice (Charles River, Sulzfeld, Germany) were subcutaneously infected with approximately 100 cercariae to establish the S. mansoni infection. In the S. mansoni infected mice the worms were allowed to develop for 7 weeks into the adult stage, before they were extracted from the mesenteric veins of the euthanized mice. The adult worms were placed into RPMI 1640 (Gibco, Waltham MA, USA) medium supplemented with 1 % penicillin/streptomycin mixture and 5 % iFCS at 37 °C and 5 % CO 2. The drug sensitivity assay was set up in a 24-well plate with two wells containing each two pairs of S. mansoni worms per compound and concentration.
The final volume per well was 2 mL, containing the culture medium and the corresponding amount of drug dissolved in DMSO. The maximum concentration tested was 50 µM, corresponding to 0.5 % DMSO, to which all the other wells were adapted […]
to, so that all test concentrations contained always the same amount of DMSO.
Additionally, 2 wells with negative controls containing only DMSO and the culture medium were included. After an incubation period of 72 h at 37 °C and 5 % CO 2, the worms were microscopically evaluated. The drug effect was determined 24, 48 and 72 h post-exposure based on the phenotype of the adult worms, using a viability scale ranging from three referring to viable, motile worms with no change in their tegument to zero standing for the death of the worms.
All described in vitro studies with mice involved, were conducted at the Swiss Tropical and Public Health Institute, first in Basel, later in Allschwil, and had the approval by the corresponding veterinary authorities of the Canton Basel-Stadt (permit no. 2070)

[2] = tested on: S. mansoni newly transformed schistosomula (NTS); assay: In vitro evaluation on newly transformed schistosomula (NTS); format: cell-based, Schistosoma mansoni; conditions: for EC50: 72 h incubation, 37 °C, 5% CO2
Experimental: 2. Experimental section for biological experiments
Stock solutions of the test compounds
Stock solution of a concentration of 10 mM in pure DMSO (Sigma-Aldrich, Switzerland) were prepared of the 12 compounds, these stock solutions were used for all in vitro evaluations from activity tests in S. mansoni to the cytotoxic determinations in HUH7 hepatocyte-derived carcinoma cells, and in SH-SY5Y neuroblastoma cells.
The solutions were thoroughly vortexed and sonicated to enable a good dissolution of the compounds and homogenous stock solutions.
2.1 In vitro evaluations in S. mansoni
In vitro evaluation on newly transformed schistosomula (NTS)
To obtain newly transformed schistosomula (NTS) the lifecycle of S. mansoni (strain originates from West Africa, Liberia) is maintained at the Swiss Tropical and Public Health Institute (Swiss TPH). As previously described, cercariae are collected from infected Biomphalaria glabrata snails and then mechanically transformed into NTS. 8 After HBSS (Gibco, Waltham MA, USA) washing to get rid of the detached tails, the NTS were kept overnight (min. 12 h, max. 24 h) in culture medium at 37 °C and 5 % CO2 to complete their transformation process, before the drug sensitivity assay was started. The drug assays were performed in the same culture medium consisting of medium M199 (Gibco, Waltham MA, USA) supplemented with 5 % v/v inactivated fetal calf serum (iFCS; Bioconcept AG, Allschwil, Switzerland), 1% antibiotics mixture developed by Mäser et al., 9 and 1 % penicillin 10,000 U/mL, and streptomycin 10 mg/mL solution (Sigma-Aldrich, Buchs, Switzerland). The assay was performed in a 96-well plate, with 30−40 NTS per well in a final volume of 250 μL. NTS incubated in culture medium containing 0.5 % DMSO but no drug served as negative controls.
Microscopic evaluation was performed after 24, 48 and 72 h of incubation of the parasites at 37 °C and 5 % CO 2. Their overall viability was scored from 0 (death) to 3 (full viability) by a phenotypic screening method based on their motility, morphology, […]
and granularity. […]

[3] = tested on: SH-SY5Y cells; assay: SYTOX cell viability assay, SH-SY5Y; format: cell-based, human; conditions: 20 µM, 24 h, serum-free charcoal-treated medium, vs DMSO control (0.2%), mean
Experimental: The SYTOX cell viability assay was performed in SHSY5Y cells. Cells were treated with either compound (20 µM) or DMSO control (0.2%) for 24 h at 37 °C and 5% CO2 in serum‐free charcoal‐treated medium. Results were normalized to the DMSO control. Mean ± SD was calculated from three independent experiments, each performed in quadruplicate. […]
serum-free media containing either treatment at a concentration of 20 µM or DMSO (ITW Reagents Cat A3672) control (0.2 %).
Following 24 h of incubation, 12.5 μL of an XTT/phenazine methosulfate (PMS) (XTT Sigma Aldrich cat X4626, PMS Serva CAT: 3203) 0.02solution (1 mg/mL XTT and 7.5 μg/mL PMS) was added to each well. Absorbance was measured using a microplate reader (Biotek Synergy HT) at 450 nm (signal) and 650 nm (background), 2 h after the addition of the XTT/PMS solution. Individual backgrounds were subtracted and all results were normalized to DMSO control. Mean ± SD was determined from three independent experiments, each performed in quintuplicate.
SYTOX cell viability assay
The cytotoxic potential was additionally evaluated using the staining-based SYTOX viability assay. […] Data was acquired on the BioTeck Cytation5 microscope and evaluated by the manufacturer’s software (Gen5 Image Prime Version 3.12). […] Mean ± SD was determined from three independent experiments, each performed in quadruplicate. […]

[4] = tested on: juvenile S. mansoni; assay: In vitro drug sensitivity assay on juvenile S. mansoni; format: cell-based, Schistosoma mansoni; conditions: 72 h incubation, 37 °C, 5% CO2
Experimental: Juvenile worms were gained through cultivation of NTS as previously described. 10 In short, NTS were obtained as described above, then directly after the mechanical transformation process the newly transformed schistosomula were placed in a special culturing medium. The culture medium consists of Panserin 401, w: L-Glutamine, serum free all-round medium (Pan Biotech, Aidenbach, Germany) supplemented with 20 % human serum and 500 U/mL penicillin, […] streptomycin (LuBioScience, Switzerland). 96-well transparent polystyrene flat bottom plates were used for the in vitro growth procedure, with 40 to 60 NTS per well in 100 µL culture medium. The bordering wells of the plate were filled solely with medium to counteract evaporation and to keep the humidity as steady as possible. The plates were incubated for 21 days at 5 % CO2 and at 37 °C, with regular medium changes every 3 to 4 days. After the 21 days culturing period, the schistosomulae developed into juveniles. For the drug sensitivity assay, juvenile worms were incubated over 72 h (5 % CO 2 and 37 °C) with the test compound in the same medium, as used for the culturing process. In a 96-well plate, 250 µL medium containing the test compound and six juvenile worms, ideally of both sexes were placed in each well. All compounds were tested twice independently at 50, 10, 5 and 1 µM in duplicates. The viability of the worms was evaluated microscopically after 24, 48 and 72 h of continuous drug exposure using the same phenotypic screening method as described before. […]

[5] = Stability of A2 in DMSO-d6 with D2O (4:1) by 1H NMR; format: physicochemical; conditions: Figure S36; DMSO-d6 with D2O (4:1, v/v)
Experimental: Figure S31 DEPT spectrum of C2
1H NMR spectra for stability
Preparation of the control samples for 1H NMR analysis: Compounds B1, D1, A3 and
C2 were dissolved in DMSO- d6. Compound A2 was dissolved in DMSO- d6 with D2O
(4:1, v/v). NMR spectra were recorded in deuterated solvents on Bruker Avance-400
in the room temperature for 0, 6, 24, 30 and 48 hours or 0, 3, 6 and 24 hours. […]

Structure (SMILES)	drug effect at 50 µM on adult S. mansoni [1]	EC50 [1]	EC50 [2]	drug effect at 50 µM on S. mansoni NTS ([2]; highest tested concentration 50 µM)	reduction of SH-SY5Y cell viability (SYTOX) [3]	mean drug effect at 10 µM on adult S. mansoni, 24 h ([1]; 10 µM, 24 h, in percentage of DMSO control)	mean drug effect at 10 µM on adult S. mansoni, 48 h ([1]; 10 µM, 48 h, in percentage of DMSO control)	mean drug effect at 10 µM on adult S. mansoni, 72 h ([1]; 10 µM, 72 h, in percentage of DMSO control)	EC50 [4]	stability under warm and moist conditions [5]
O=C(Nc1ncc([N+](=O)[O-])s1)[c-]1cccc1.[Fe+2].c1cc[cH-]c1 [Compound A1]	No drug effect	> 50 µM	> 50 µM	No drug effect	did not alter SH‐SY5Y cell viability; also recorded: inactive					
O=C([c-]1cccc1)N1CCN(c2ncc([N+](=O)[O-])s2)C1=O.[Fe+2].c1cc[cH-]c1 [Compound A2]	more active	8.2 µM	2 µM			36.97%	46.61%	56.40%	6.35 µM	stable
